Source: the NIST ThermoML archive (doi:10.1021/je900903w)

Test: mn = molality of the nth substance listed, in mol/kg
Conditions: 101 kPa, Liquid; for molar conductivity: Alternating current cell with electrodes

O=C[O-].[K+] [potassium formate] + O
Conditions | mass density, 298.15 K [kg/m3] | molar conductivity, 278.15 K [S·m2/mol] | molar conductivity, 283.15 K [S·m2/mol] | molar conductivity, 288.15 K [S·m2/mol] | molar conductivity, 293.15 K [S·m2/mol] | molar conductivity, 298.15 K [S·m2/mol] | molar conductivity, 303.15 K [S·m2/mol] | molar conductivity, 308.15 K [S·m2/mol] | molar conductivity, 313.15 K [S·m2/mol]
m1 = 0.0003498 | – | 0.007906 | 0.009019 | 0.01018 | 0.01138 | 0.0126 | 0.01387 | 0.01516 | 0.01649
m1 = 0.0006599 | – | 0.007826 | 0.008931 | 0.01008 | 0.01128 | 0.01251 | 0.01377 | 0.01502 | 0.01632
m1 = 0.001026 | – | 0.007789 | 0.008888 | 0.01003 | 0.01121 | 0.01245 | 0.01371 | 0.015 | 0.01628
m1 = 0.001412 | – | 0.007752 | 0.008844 | 0.009984 | 0.01117 | 0.01239 | 0.01365 | 0.01494 | 0.01622
m1 = 0.001766 | – | 0.007701 | 0.008787 | 0.009919 | 0.0111 | 0.01231 | 0.01356 | 0.01485 | 0.01614
m1 = 0.002217 | – | 0.007674 | 0.008755 | 0.009886 | 0.01106 | 0.01226 | 0.01351 | 0.0148 | 0.01608
m1 = 0.002823 | – | 0.007653 | 0.008729 | 0.009852 | 0.01102 | 0.01223 | 0.01348 | 0.01476 | 0.01606
m1 = 0.003432 | – | 0.007632 | 0.008706 | 0.009826 | 0.01099 | 0.0122 | 0.01344 | 0.01472 | 0.01601
m1 = 0.00406 | – | 0.007611 | 0.008682 | 0.0098 | 0.01097 | 0.01217 | 0.01341 | 0.01468 | 0.01596
m1 = 0.004815 | – | 0.007596 | 0.008665 | 0.00978 | 0.01094 | 0.01214 | 0.01338 | 0.01465 | 0.01593
m1 = 0.005831 | 997.346 | 0.007573 | 0.008637 | 0.009748 | 0.01091 | 0.0121 | 0.01333 | 0.0146 | 0.01587
m1 = 0.1219 | 1002.91 | – | – | – | – | – | – | – | –
